Laboratory results published in patent US6943191B1, “Disubstituted lavendustin A analogs and pharmaceutical composition comprising the analogs” (The United States of America as represented by the …, priority 1998, dated 2005).
Read-outs that look alike come from different tables or passages of the source. Blank lines part the entries; values can stand above or below the compound they belong to.

What was measured:
[1] = system: K562 cells; experiment: K562 cell culture and growth assay, 6 day MTT; format: cell-based, human; settings: K562, 6 days
Description: This example describes the procedure used for cell culture and growth assays. Human leukemia, Philadelphia-chromosome-positive CML cell line K562 was obtained from ATCC (Rockville, Md.). Cells were cultured in RPMI medium containing 10% fetal calf serum, 2 mM glutamine, 100 units/ml of penicillin and 100 μg/ml streptomycin Cells (2×10^3 cells/well) were incubated with increasing concentrations of compounds of the present invention dissolved in DMSO in a final volume of 200 μl in 96-well plates. Control cells were incubated with medium containing identical concentrations of the DMSO solvent. Growth of K562 cells was quantitated after 6 days by ability of living cells to reduce the yellow dye 3-(4,5-dimethylthiazolyl)-2,5-diphenyltetrazolium bromide (MTT) to a blue formazan product. Further information concerning this procedure is provided by Mossman T., “Rapid Colorimetric Assay for Cellular Growth and Survival—Application to Proliferation and Cytotoxicity Assays,” J. Immunol. Methods 1983, 65:55-63, which is incorporated herein by reference.

[2] = target: T1, p210^bcr-abl (Homo sapiens, UniProt P00519); experiment: Inhibition of in vitro auto-phosphorylation of p210^bcr-abl, immune-complex kinase assay; format: biochemical
T1 construct: immune complexes containing ^32P-labeled p210^bcr-abl were collected on protein Sepharose beads; BCR (N-terminal part of the breakpoint cluster region protein, natural fusion partner); endogenous in cells; host or cells: K562 cells (lysate, immunoprecipitated on Protein A-Sepharose); the other entry of the earlier key: BCR (P11274, Breakpoint cluster region protein)
Description: Inhibition of in vitro auto-phosphorylation of p210^bcr-abl in immune-complex kinase assays were conducted as follows. K562 cell line cells were washed twice in […]. The washed cells were lysed in PLC lysis buffer 150 mM HEPES (pH 7.5), 150 mM NaCl, 10% (v/v) glycerol, 1% (v/v) Triton X-100, 1.5 mM MgCl2, 1 mM EGTA. 10 μg/ml leupeptin, 10 μg/ml aprotinin, 1 mM sodium orthovanadate. 10 mM sodium pyrophosphate, 100 mM sodium fluoride and 1 mM phenylmethyl sulfonyl fluoride| Cell lysates were centrifuged at 100,000 g for 15 minutes and the supernatant collected. Protein concentrations of the clarified supernatants were determined by the Bradford Protein Assay, and the same quantity of protein was immunoprecipitated from control (vehicle-treated) and drug-treated cells. Cell lysates were incubated and gently rocked at 4° C. for 4 hours overnight with antibodies. Immune complexes were collected by incubation with Protein A-Sepharose beads (Pharmacia, Piscataway N.J.) and immune complexes (beads) were washed three times with HNTG buffer [20 mM HEPES (pH 7.5), 10% glycerol, 0.1% Triton X-100, 150 mM NaCl and 1 mM sodium orthovanadate] to remove unbound material. Bound proteins were boiled for 5 minutes in 2×SDS sample buffer (63 mM Tris-HCl, ph 6.8; 10% glycerol; 2% SDS; 0.0025% bromophenol blue: and […] 2 mercaptoethanol) prior to SDS-PAGE. Proteins were resolved on 4-20% gradient mini gels from Novex Experimental Technology (San Diego, Calif.).
After SDS-PAGE, proteins were electrophoretically transferred onto Immobilon polyvinylidene difluoride (PVDF) membranes (Millipore, Bedford, Mass.) at 250 mA for 4 hours at 4° C. using 2× Tris glycine transfer buffer (50 mM Tris, glycine), 20% methanol and 0.1% SDS. Residual binding sites on the membrane were blocked by incubation in TTS (20 mM Tris pH 7.4, 0.9% NaCl and 0.05% Tween 20) containing 3% BSA overnight at 4° C. or for 4 hours at room temperature. Blots were incubated for 1-1.5 hours with TTS containing 0.3% BSA with 1 μg/ml of mouse anti-P-Tyr, 2 μg/ml of mouse anti-Grb2 or 1 μg/ml of rabbit anti-She antibody. Blots were washed three times for 6 minutes each with TTS containing 0.3% BSA and probed with a 1:1000 dilution of rabbit anti-mouse antibody or directly with [^125I]Protein A (Amersham, Arlington Heights, Ill.) in blocking solutions. Proteins were visualized by autoradiography (exposed for 1-2 days at −70° C.).
The p210^bcr-abl, protein immunoprecipitates were washed twice with HTNG buffer Immunoprecipitates were washed once with 50 mM Tris (pH 7.0) and distributed to each reaction in 20 μl of 20 mM PIPES [piperazine-N,N′-bis(ethanesulfonic acid)] (pH 7.0)−20 mM MnCl2. Then, 10 μl of compounds made according to the present invention at desired concentrations from working stock solution prepared in 20 mM PIPEs (pH 7.0)−20 mM MnCl2 were added to each reaction tube. Reactions were initiated with the addition of 10 μl of [γ-^33P]ATP (10 μCi per sample, 3000 Ci/mmol; Amersham), incubated for 20 minutes at 30° C., stopped by addition of 10 μl of 5×SDS sample buffer, heated at 100° C. for 5 minutes, and analyzed on 4-20% SDS-PAGE and by autoradiography.
To assess the effect of drugs added in vitro on the state of p210^bcr-abl in the immune complexes, K562 cells were labeled with ^32P, lysed in PLC buffer and immune complexes containing ^32P-labeled p210^bcr-abl were collected on protein Sepharose beads and beads were washed four times with HNTG buffer. Immune complexes were divided into several tubes in 30 μl of PLC buffer in the presence of compounds made as described herein.

[3] = system: panel of approximately 60 different human tumor cell lines; experiment: National Cancer Institute drug screen, mean-graph parameters; format: cell-based; settings: mean over cell line panel, two days exposure; for GI50: Homo sapiens, 48 h
Description: Compounds of the present invention also have been subjected to the drug screening procedure employed by the National Cancer Institute for the screening of drugs having possible anticancer utility. The screening procedure uses a diverse, disease-oriented panel consisting of approximately 60 different human tumor cell lines organized into disease-specific subpanels. The compounds of the present invention were tested over a range of concentrations for cytotoxic or growth-inhibitory effects against cell lines comprising the panel. The eight subpanels represented diverse histologies (leukemias, melanomas, and tumors of the lung, colon, kidney, breast, ovary, and brain).
Compounds of the present invention were tested over a period of two days. During this period the cells were continuously exposed to various concentrations of the compounds tested. The tests produced individual dose-responses, one for each cell line (i.e. one for each example), and the data were represented in dose-response curves. The data provided by these dose response curves were summarized using a mean-graph format.
To produce data for the mean-graph format, a compound concentration that produced a target level response was calculated for each cell line. Three different response parameters were evaluated. The first response parameter was the growth inhibition (“GI50”). GI50 is the concentration of compounds made according to the present invention that produced an apparent 50% decrease in the number of tumor cells relative to the appropriate control (not exposed to the compounds of the present invention) at the end of the incubation period.
The second response parameter was the total growth inhibition (“TGI”). TGI is the concentration at which the number of tumor cells remaining at the end of the incubation period substantially equal the number of tumor cells existing at the start of the incubation period.
The third response parameter was the lethal concentration (“LC50”) LC50 is the concentration of compounds made according to the present invention that caused an apparent 50 percent reduction in the number of tumor cells […] at the start of the incubation period.
In a typical GI50 mean graph, the relative position of the vertical reference line along the horizontal concentration axis was obtained by averaging the negative log10GI50 values for all the cell lines tested against the compound. Horizontal bars were then plotted for the individual negative log10GI50 values of each cell line relative to the vertical reference line. The GI50 graph thus provided a characteristic fingerprint for the compound, displaying the individual cell lines that are proportionately more sensitive than average (bars extending to the right of the reference line) or proportionately less sensitive than average (bars extending to the left of the reference line). The length of a bar was proportional to the difference between the log10GI50 value obtained with the particular cell line and the mean (represented by the vertical reference line).
Similar mean graphs were prepared for the TGI and LC50 response parameters.

[4] = Homo sapiens, 144 h, Table 10, mean ± S.E., 4 or more experiments, read-out: IC50 (μM) 6dMTT
[5] = Table 10, immune complex kinase assay, mean ± S.E., 3 experiments, read-out: Enzyme Assays IC50 (μM) p210bcl-abl in vitro phosphorylation
[6] = Table 10, read-out: Tumor Cell Mean log GI50 (converted)
[7] = Table 9, mean ± S.E., 4 or more experiments, read-out: IC50 (μM) 6dMTT
[8] = Table 9, immune complex kinase assay, mean ± S.E., 3 experiments, read-out: Enzyme Assays IC50 (μM) p210bcl-abl in vitro phosphorylation
[9] = Homo sapiens, 144 h, Table 8, mean+S.E., 4 or more experiments, read-out: IC50 (μM) 6 dMTT
[10] = Table 8, immune complex kinase assay, mean+S.E., 3 experiments, read-out: Enzyme Assays IC50 (μM) p210bcl-abl in vitro phosphorylation
[11] = Homo sapiens, 144 h, Table 9, mean ± S.E., 4 or more experiments, read-out: IC50 (μM) 6dMTT
[12] = Table 9, read-out: Tumor cell Mean log GI50 (converted)
[13] = Homo sapiens, 144 h, Table 4, read-out: IC50 (6d MTT)
[14] = Table 4, read-out: IC50 (p210^ber-abi in vitro phosphorylation)

T1 sequence (P00519 with tags, fused parts or gaps): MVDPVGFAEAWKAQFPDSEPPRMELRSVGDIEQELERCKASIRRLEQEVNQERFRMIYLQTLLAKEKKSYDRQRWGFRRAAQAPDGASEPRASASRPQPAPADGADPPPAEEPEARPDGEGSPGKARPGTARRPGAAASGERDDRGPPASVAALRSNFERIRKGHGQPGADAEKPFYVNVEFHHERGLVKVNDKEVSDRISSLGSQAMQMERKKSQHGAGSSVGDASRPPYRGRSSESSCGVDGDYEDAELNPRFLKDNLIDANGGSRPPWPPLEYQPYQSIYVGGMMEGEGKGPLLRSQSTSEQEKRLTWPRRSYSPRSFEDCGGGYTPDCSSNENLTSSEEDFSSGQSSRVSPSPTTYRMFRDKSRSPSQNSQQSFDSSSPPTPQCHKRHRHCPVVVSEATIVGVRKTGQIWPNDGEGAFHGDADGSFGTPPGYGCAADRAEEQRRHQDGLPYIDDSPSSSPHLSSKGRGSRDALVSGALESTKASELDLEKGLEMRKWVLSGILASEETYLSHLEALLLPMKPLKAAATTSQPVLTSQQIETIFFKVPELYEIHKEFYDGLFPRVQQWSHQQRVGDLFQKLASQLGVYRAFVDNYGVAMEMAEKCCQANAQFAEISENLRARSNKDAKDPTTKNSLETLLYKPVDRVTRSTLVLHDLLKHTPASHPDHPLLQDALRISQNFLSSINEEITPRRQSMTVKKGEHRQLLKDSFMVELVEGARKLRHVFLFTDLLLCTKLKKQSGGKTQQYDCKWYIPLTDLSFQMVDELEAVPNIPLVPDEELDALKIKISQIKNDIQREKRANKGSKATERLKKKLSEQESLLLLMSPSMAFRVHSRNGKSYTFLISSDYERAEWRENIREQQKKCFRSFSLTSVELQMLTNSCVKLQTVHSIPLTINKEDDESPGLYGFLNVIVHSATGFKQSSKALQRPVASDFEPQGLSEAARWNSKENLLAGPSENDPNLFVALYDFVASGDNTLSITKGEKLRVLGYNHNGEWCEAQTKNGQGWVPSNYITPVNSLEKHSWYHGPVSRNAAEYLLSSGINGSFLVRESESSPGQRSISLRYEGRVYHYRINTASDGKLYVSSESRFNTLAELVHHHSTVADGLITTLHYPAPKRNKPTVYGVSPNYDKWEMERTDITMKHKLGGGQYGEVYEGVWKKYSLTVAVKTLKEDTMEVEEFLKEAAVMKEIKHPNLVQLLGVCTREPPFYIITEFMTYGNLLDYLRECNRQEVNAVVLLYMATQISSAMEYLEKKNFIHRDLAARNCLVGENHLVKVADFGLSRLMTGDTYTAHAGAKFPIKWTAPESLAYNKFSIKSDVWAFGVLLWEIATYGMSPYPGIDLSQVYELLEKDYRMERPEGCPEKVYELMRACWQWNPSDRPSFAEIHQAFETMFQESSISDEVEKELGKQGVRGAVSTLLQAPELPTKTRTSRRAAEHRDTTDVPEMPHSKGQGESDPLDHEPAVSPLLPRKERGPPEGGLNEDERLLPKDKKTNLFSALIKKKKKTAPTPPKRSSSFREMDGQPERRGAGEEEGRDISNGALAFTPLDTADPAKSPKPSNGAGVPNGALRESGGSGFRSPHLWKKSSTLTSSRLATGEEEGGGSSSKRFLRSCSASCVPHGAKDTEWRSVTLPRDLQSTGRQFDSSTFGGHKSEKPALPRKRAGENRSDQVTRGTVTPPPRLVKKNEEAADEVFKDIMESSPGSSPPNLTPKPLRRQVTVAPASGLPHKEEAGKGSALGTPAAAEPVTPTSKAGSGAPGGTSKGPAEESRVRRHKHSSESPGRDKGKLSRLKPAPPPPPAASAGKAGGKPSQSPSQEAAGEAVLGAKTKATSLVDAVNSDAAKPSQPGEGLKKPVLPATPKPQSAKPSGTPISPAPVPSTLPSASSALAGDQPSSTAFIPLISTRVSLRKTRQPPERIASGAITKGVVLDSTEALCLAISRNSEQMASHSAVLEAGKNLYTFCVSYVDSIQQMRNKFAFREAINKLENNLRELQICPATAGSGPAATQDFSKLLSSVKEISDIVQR

Compound: O=C(O)c1ccc(CCc2cc(O)ccc2O)cc1O
IC50 ([1]; Table 10, mean ± S.E., 4 or more experiments, read-out: IC50 (μM) 6dMTT): 33.4 ± 4.8 µM
IC50 [2, 5]: 13 ± 1.03 µM
Tumor Cell Mean log GI50 ([3]; Table 10): −4.06
Tumor Cell Mean log TGI ([3]; Table 10): −4.01

Compound: COC(=O)c1cc(NCc2cc(O)cc(Br)c2O)ccc1Cl [4′-chloro-5′-methylbenzoate-1′-N-3-bromo-2,5-dihydroxybenzylamine]
IC50 [1, 7]: 8.9 ± 0.5 µM
IC50 [2, 8]: 3.56 ± 0.53 µM
Tumor Cell Mean log GI50 ([3]; Table 9): −4.86
Tumor Cell Mean log TGI ([3]; Table 9): −4.43

Compound: Oc1ccc(O)c(CNc2ccc(C(O)C(F)(F)F)cc2)c1 (stereo not drawn) [CH(OH)CF3 / H / H, 4′-(trifluoromethylethanol)-1′-N-2,5-dihydroxybenzylamine]
IC50 [1, 9]: 14.3 µM
IC50 [2, 10]: 0.57 µM
Tumor Cell Mean log GI50 ([3]; Table 8): −4.82
Tumor Cell Mean log TGI ([3]; Table 8): −4.34

Compound: NC(=O)c1ccc(NCC2=CC(=O)C=CC2=O)cc1 [CONH2 / H / 2,5-quinoyl]
IC50 [1, 7]: 21.7 ± 2.27 µM
IC50 [2, 8]: 5.1 ± 0.3 µM
Tumor Cell Mean log GI50 ([3]; Table 9): −4.59
Tumor Cell Mean log TGI ([3]; Table 9): −4.31

Compound: NC(=O)c1ccc(NCc2cc(O)ccc2O)cc1 [CONH2 / H / H]
IC50 [1, 9]: 20.9 µM
IC50 [2, 10]: 4.23 µM
Tumor Cell Mean log GI50 ([3]; Table 8): −4.53
Tumor Cell Mean log TGI ([3]; Table 8): −4.26

Compound: CC(C)N(C(=O)c1ccc(NCc2cc(O)ccc2O)cc1)C(C)C [CON[CH(CH3)2]2 / H / H, 4′-diisopropylbenzamide-N-2,5-dihydroxybenzylamine]
IC50 [1, 9]: 18.2 µM
IC50 [2, 10]: 2.36 µM
Tumor Cell Mean log GI50 ([3]; Table 8): −4.88
Tumor Cell Mean log TGI ([3]; Table 8): −4.36

Compound: COC(=O)c1ccc(NCc2cc(O)ccc2O)cc1 [COOCH3 / H / H, reference compound]
IC50 ([1]; Table 8, mean+S.E., 4 or more experiments, read-out: IC50 (μM) 6 dMTT): 16.6 µM
IC50 [2, 10]: 2.9 µM
Tumor Cell Mean log GI50 ([3]; Table 8): −4.95
Tumor Cell Mean log TGI ([3]; Table 8): −4.52

Compound: COC(=O)c1ccc(NCc2cc(O)ccc2O)cc1O [COOCH3 / OH / H]
IC50 [1, 9]: 17.7 µM
IC50 [2, 10]: 6.44 µM
Tumor Cell Mean log GI50 ([3]; Table 8): −5.23
Tumor Cell Mean log TGI ([3]; Table 8): −4.70

Compound: O=C(O)c1ccc(NCc2cc(O)ccc2O)cc1 [COOH / H / H]
IC50 [1, 9]: 41.9 µM
IC50 [2, 10]: 18.5 µM
Tumor Cell Mean log GI50 ([3]; Table 8): −4.96
Tumor Cell Mean log TGI ([3]; Table 8): −4.60

Compound: CC(C)OC(=O)c1cc(NCc2c(O)ccc(O)c2Br)ccc1Cl [Compound 13]
IC50 [1, 13]: 18 µM
IC50 [2, 14]: 10 µM

Compound: CC(C)(C)OC(=O)c1ccc(NCc2cc(O)ccc2O)cc1 [Compound 14]
IC50 [1, 13]: 7 µM
IC50 [2, 14]: 10 µM

Continued, in another order:

IC50 [1, 4]: 18.5 ± 5.62 µM
IC50 [2, 5]: 2.64 ± 0.99 µM
Compound: COC(=O)c1ccc(CCc2cc(O)ccc2O)cc1
GI50 [3, 6]: 10 µM
Tumor Cell Mean log TGI ([3]; Table 10): −4.43

IC50 [1, 4]: 20 ± 0.7 µM
IC50 [2, 5]: 5.77 ± 0.53 µM
Compound: CC(C)OC(=O)c1ccc(CCc2cc(O)c(Br)cc2O)cc1
GI50 [3, 6]: 7.59 µM
Tumor Cell Mean log TGI ([3]; Table 10): −4.50

IC50 [1, 11]: 25.4 ± 1.88 µM
IC50 [2, 8]: 25.9 ± 9.02 µM
Compound: CC(C)(C)OC(=O)c1ccc(NCC2=CC(=O)C=CC2=O)cc1 [COOC(CH3)3 / H / 2,5-quinoyl]
GI50 [3, 12]: 8.13 µM
Tumor Cell Mean log TGI ([3]; Table 9): −4.67

IC50 [1, 11]: 22.8 ± 18 µM
IC50 [2, 8]: 8.75 ± 1.25 µM
Compound: O=C1C=CC(=O)C(CNc2ccc(C(=O)OCc3ccccc3)cc2)=C1 [COOCH2—C6H6 / H / 2,5-quinoyl]
GI50 [3, 12]: 5.01 µM
Tumor Cell Mean log TGI ([3]; Table 9): −4.78

IC50 [1, 11]: 15.1 ± 1.28 µM
IC50 [2, 8]: 15.9 ± 2.91 µM
Compound: COC(=O)c1ccc(NCC2=CC(=O)C=CC2=O)cc1 [COOCH3 / H / 2,5-quinoyl]
GI50 [3, 12]: 2.51 µM
Tumor Cell Mean log TGI ([3]; Table 9): −4.8

IC50 [1, 13]: 26 µM
IC50 [2, 14]: 25 µM
Compound: CC(C)OC(=O)c1ccc(CCC2=CC(=O)C=CC2=O)cc1 [Compound 30]

IC50 [1, 13]: 10 µM
IC50 (p210^ber-abi in vitro phosphorylation) ([2]; Table 4): No Effect
Compound: CC(C)OC(=O)c1ccc(CCC2=CC(=O)C(Br)=CC2=O)cc1 [Compound 32]

IC50 [1, 13]: 7.5 µM
IC50 (p210^ber-abi in vitro phosphorylation) ([2]; Table 4): No Effect
Compound: COC(=O)c1ccc(/C=C/C2=CC(=O)C=CC2=O)cc1 [Compound 33]
